Measurements published in US6574913B2, “Semiochemical and sonic signals for monitoring and control of clothes moths” (priority 2001, dated 2003).

System: T. bisselliella
Assay: not given
Conditions: literature refs 16, 17; cited from earlier work

Row | SMILES | attractiveness as reported sex pheromone components
1 | CCCC/C=C\CCCCCCCCC/C=C/C=O [(E,Z)-2,13:octadecadienal] | only moderately attractive
2 | CCCCCCCCCCCCCCC/C=C/C=O [E2-octadecenal, reference compound] | only moderately attractive

System: T. bisselliella
Assay: Arena bioassay: captures of moths on sticky traps baited with test or control stimuli
Type: in vivo, Tineola bisselliella
Conditions: Exps. 29-31; 16:Ester 480 ng plus Z9-16:Ester 840 ng tested together
Method: Tactic responses of T. bisselliella to volatile stimuli from larval habitat were assessed in a closed cylindrical Plexiglas container (125 cm diameter, 60 cm height). Thin cardboard discs (10 cm diameter) coated with Tanglefoot on the upper side were placed on the arena floor 80 cm apart from each other. Platforms suspended above the centre of the coated discs supported randomly assigned test or control stimuli. Control stimuli consisted of cardboard silhouettes visually resembling test stimuli. Per experiment 10 replicates with 25 adult moths each were employed. Moths were released during the scotophase from a Petri dish in the centre of the arena after 30-min of acclimation. After 12 hours of experimental time, moths captured on sticky discs (FIG. 1) were recorded as responders and statistically analysed.

Row | SMILES | trap captures, attraction by synthetic male pheromone components
3 | CCCCCC/C=C\CCCCCCCC(=O)OC [(Z)-9-hexadecenoic acid methyl ester] | attracted both male and virgin female T. bisselliella
4 | CCCCCCCCCCCCCCCC(=O)OC [hexadecanoic acid methyl ester] | attracted both male and virgin female T. bisselliella

Same assay, conditions: Exps. 34-37; tested together in various ratios

Row | SMILES | trap captures of males, attraction by synthetic female pheromone components
5 | CCCC/C=C\CCCCCCCCC/C=C/C=O [(E,Z)-2,13:octadecadienal] | attracted male T. bisselliella
6 | CCCC/C=C\CCCCCCCCC/C=C/CO [(E,Z)-2,13:octadecadienol] | attracted male T. bisselliella

Same assay, conditions: geranylacetone (44 ng) and nonanal (3.5 μg) tested together, equivalent quantities; female or male moths

Row | SMILES | trap captures versus dried muskrat pelt
7 | CC(=O)CC/C=C(\C)CCC=C(C)C [geranylacetone] | more attractive than natural (muskrat) pelt
8 | CCCCCCCCC=O [nonanal] | more attractive than natural (muskrat) pelt

System: T. bisselliella antenna
Assay: Coupled gas chromatographic-electroantennographic detection (GC-EAD)
Set-up: species or system Tineola bisselliella
Conditions: male and gravid female T. bisselliella antenna; 5 pelt-min of squirrel pelt volatile extract
Method: Samples of animal pelt (150 cm^2) were aerated for one week in a cylindrical Pyrex glass chamber. A water-aspirator was used to draw charcoal-filtered, humidified air at 2 L/min through the chamber and a glass column (14 cm×13 mm O. D.) filled with Porapak Q. Volatiles captured on Porapak Q were eluted with 5 ml of redistilled pentane and the eluent concentrated to 2 ml by distillation in a 30 cm Dufton column, adjusting the volatile extract so that 2 μl equalled 5 pelt-min of volatile collection. Aliquots of 2.5 pelt-min equivalents of Porapak Q-captured volatile extracts were analysed by coupled gas chromatographic-electroantennographic detection (GC-EAD) (28) (FIG. 2).
FIG. 2 illustrates flame ionization detector (FID) and electroantennographic detector (EAD ♂: male T. bisselliella antenna; EAD ♀: gravid female T. bisselliella antenna) responses to 5 pelt-min of squirrel pelt volatile extract. Chromatography: Hewlett Packard (HP) 5890A gas chromatograph equipped with a fused silica column (30 m×0.25 mm ID) coated with DB-5; linear flow velocity of carrier gas: 35 cm/sec; injector and FID detector temperature: 240° C.; temperature program: 1 min at 50° C., 20° C./min to 70° C. then 7.5° C./min to 280° C. (J & W Scientific, Folsom, Calif. 95630). EAD-active compounds were analyzed by GC-mass spectrometry (MS) in full scan electron impact (EI) and chemical ionization (isobutane) (CI) modes, using a Varian Saturn II Ion Trap GC-MS and a HP 5985B GC-MS. Antennally-active compounds were identified as follows: 1. hexanal (20.0); 2. heptanal (35.0); 3. octanal (55.0); 4. nonanal (80.0); 5. decanal (20.0); 6. dodecanal (4.0); 7. tridecanal (6.0); 8. tetradecanal (5.0); 9. pentadecanal (0.8); 10. hexadecanal (1.0); 11. heptadecanal (0.7); 12. octadecanal (0.1); 13. heptanol (10.0); 14. nonanol (10.0); 15. decanol (12.0); 16. undecanol (200.0); 17. dodecanol (10.0); 18. tridecanol (70.0); 19. tetradecanol (3.0); 20. pentadecanol (2.0); 21. hexadecanol (0.3); 22. heptadecanol (0.5); 23. octadecanol (0.1); 24. tetradecane (20.0); 25. pentadecane (100.0); 26. hexadecane (100.0); 27. eicosane (20.0); 28. uneicosane (0.7); 29.2-undecanal (4.0); 30. E2-nonenal (9.0); 31. E2-decenal (11.0); 32. geranylacetone (1.0). Numbers in brackets refer to nanogram quantities present in 15 pelt-min of aeration of dried, untanned animal pelt (150 cm^2).
The bodies of two hundred 24-48 hour old virgin male T. bisselliella were extracted for 15 min in methanol.
FIG. 6 illustrates flame ionization detector (FID) and electroantennographic detection (EAD: male T. bisselliella antenna) responses to one male equivalent of male T. bisselliella body extract. EAD-active compounds 1-3 were identified by GC-mass spectrometry as 1. hexadecanoic acid methyl ester; 2. (Z)-9-hexadecenoic acid methyl ester; and 3. octadecanoic acid methyl ester. […] Chromatography: Hewlett Packard (HP) 5890A gas chromatograph equipped with a fused silica column (30 m×0.32 mm ID) coated with DB-23 (J & W Scientific, Folsom, Calif. 95630); linear flow velocity of carrier gas: 35 cm/sec; injector and FID detector temperature: 240° C.; temperature program: 1 min at 50° C., 10° C./min to 200° C. EAD-active compounds were identified by GC-mass spectrometry (MS) in full scan electron impact (EI) mode using a Varian Saturn II Ion Trap GC-MS.
Terminal abdominal segments with pheromone glands of one-hundred 12-48 hour-old virgin females were severed and extracted for 5-15 min in hexane.
FIG. 10 illustrates flame ionization detector (FID) and electroantennographic detector (EAD: male T. bisselliella antenna) responses to one female equivalent of female T. bisselliella pheromone gland extract. EAD-active compounds 1-3 were identified as 1. (E,Z)-2,13:octadecadienol (E2,Z13-18:OH) and 2. (E,Z)-2,13:octadecadienal (E2,Z13-18:Ald). […]

Row | SMILES | electroantennographic detector (EAD) response to components of squirrel pelt volatile extract
9 | CCCCCCCCCC(C)=O [2-undecanal] | Antennally-active
10 | CCCCCCC/C=C/C=O [E2-decenal] | Antennally-active
11 | CCCCCC/C=C/C=O [E2-nonenal] | Antennally-active
12 | CCCCCCCCCC=O [decanal] | Antennally-active
13 | CCCCCCCCCCO [decanol] | Antennally-active
14 | CCCCCCCCCCCC=O [dodecanal] | Antennally-active
15 | CCCCCCCCCCCCO [dodecanol] | Antennally-active
16 | CCCCCCCCCCCCCCCCCCCC [eicosane] | Antennally-active
17 | CC(=O)CC/C=C(\C)CCC=C(C)C [geranylacetone] | Antennally-active
18 | CCCCCCCCCCCCCCCCC=O [heptadecanal] | Antennally-active
19 | CCCCCCCCCCCCCCCCCO [heptadecanol] | Antennally-active
20 | CCCCCCC=O [heptanal] | Antennally-active
21 | CCCCCCCO [heptanol] | Antennally-active
22 | CCCCCCCCCCCCCCCC=O [hexadecanal] | Antennally-active
23 | CCCCCCCCCCCCCCCC [hexadecane] | Antennally-active
24 | CCCCCCCCCCCCCCCCO [hexadecanol] | Antennally-active

Row | SMILES | electroantennographic detector (EAD) response to components of squirrel pelt volatile extract
25 | CCCCCC=O [hexanal] | Antennally-active
26 | CCCCCCCCC=O [nonanal] | Antennally-active
27 | CCCCCCCCCO [nonanol] | Antennally-active
28 | CCCCCCCCCCCCCCCCCC=O [octadecanal] | Antennally-active
29 | CCCCCCCCCCCCCCCCCCO [octadecanol] | Antennally-active
30 | CCCCCCCC=O [octanal] | Antennally-active
31 | CCCCCCCCCCCCCCC=O [pentadecanal] | Antennally-active
32 | CCCCCCCCCCCCCCC [pentadecane] | Antennally-active
33 | CCCCCCCCCCCCCCCO [pentadecanol] | Antennally-active
34 | CCCCCCCCCCCCCC=O [tetradecanal] | Antennally-active
35 | CCCCCCCCCCCCCC [tetradecane] | Antennally-active
36 | CCCCCCCCCCCCCCO [tetradecanol] | Antennally-active
37 | CCCCCCCCCCCCC=O [tridecanal] | Antennally-active
38 | CCCCCCCCCCCCCO [tridecanol] | Antennally-active
39 | CCCCCCCCCCCO [undecanol] | Antennally-active
40 | CCCCCCCCCCCCCCCCCCCCC [uneicosane] | Antennally-active

Same assay, conditions: male antenna, one female equivalent

Row | SMILES | EAD response to components of female T. bisselliella pheromone gland extract
41 | CCCC/C=C\CCCCCCCCC/C=C/C=O [(E,Z)-2,13:octadecadienal] | EAD-active
42 | CCCC/C=C\CCCCCCCCC/C=C/CO [(E,Z)-2,13:octadecadienol] | EAD-active

Same assay, conditions: male antenna, one male equivalent; similar responses with female antennae

Row | SMILES | EAD response to components of male T. bisselliella body extract
43 | CCCCCC/C=C\CCCCCCCC(=O)OC [(Z)-9-hexadecenoic acid methyl ester] | EAD-active
44 | CCCCCCCCCCCCCCCC(=O)OC [hexadecanoic acid methyl ester] | EAD-active
45 | CCCCCCCCCCCCCCCCCC(=O)OC [octadecanoic acid methyl ester] | EAD-active
